The source of these data is patent publication US20220142958A1, “MEDICINAL COMPOSITION HAVING EXCELLENT STABILITY” (EA Pharma Co., Ltd., priority 2019, published 2022).

Common to all, as to type: in vivo, rat
A short description of series [1]: Estimated plasma concentration in bilaterally nephrectomized rats. To be noted: 48 hours after single intravenous administration at 3 mg/kg.
The next series has as its system serum Ca concentration. Kind of series: Serum Ca concentration in bilaterally nephrectomized rats after single intravenous administration. An excerpt:
(§1) After quarantine and acclimatization periods of 6 days, fifty-one rats (Crl: CD (SD), male) aged 7 weeks were fed a 100% sucrose diet ad libitum from four days before the surgery. On the day of the surgery, skin incisions were made on the back at the sites of the right and left kidneys under isoflurane anesthesia and the renal capsules were removed to ligate the renal arteries and veins and the ureters using threads before removing the right and left kidneys. A penicillin solution was given upon suturing, and 5 mL of physiological saline was intraperitoneally administered before returning the rats into the breeding cages.
(§2) On the day of administering the test substance, for example, a day after the bilaterally nephrectomy, approximately 100 μL of blood was collected from the tail vein without anesthesia using a capillary tube, which was centrifuged in a high speed refrigerated microcentrifuge (10,000 rpm, 5 min, 4° C.) to separate the serum. Thereafter, the serum Ca concentration was measured with a dri-chemanalyzer (model number: FUJI DRI-CHEM 7000, manufacturer: FUJI FILM Medical Co., Ltd.) to select individuals with a serum Ca concentration of 8.0 mg/dL or more and less than 14.0 mg/dL.
(§3) On a day after the bilaterally nephrectomy, the given doses were calculated based on the weight of the selected animals on that day. Group 1 was given a medium (physiological saline), Groups 2, 3 and 4 were given the Compound A1 solution (0.3, 3 and 30 mg/mL, respectively), and Groups 5, 6, 7 and 8 (5 rats per group) were given the comparative compound (0.3, 1, 3 and 10 mg/mL, respectively), each given a single dose of 1 ml/kg from the tail vein. Prior to the administration (0 hours), and 24 and 48 hours after the administration, approximately 300 μL of blood was collected without anesthesia from the tail vein using capillary tubes for obtaining the serum. The blood for obtaining the serum was left to stand at room temperature, and centrifuged in a high speed refrigerated microcentrifuge (10,000 rpm, 5 min, 4° C.) within a period of 30 minutes to 2 hours after the blood collection to collect the serum.
(§4) Thereafter, the serum Ca was analyzed with COBAS analyzer (Model number: COBAS INTEGRA 400 plus, manufacturer: Roche Diagnostics K.K.), and the remaining serum was stored in an ultra-low freezer (temperature set to −80±15° C.) until the day of iPTH measurement. On the day of iPTH measurement, the serum was melted at room temperature for measurement.
(§5) A 30 mg/ml Compound A1 solution ([…] of Compound A1 dissolved in 10 ml of physiological saline) was diluted with physiological saline to prepare 0.3 mg/ml and […] Compound A1 solutions.
(§6) 149 mg of etelcalcetide (Ac-c(C) arrrar-NH2) TFA salt (WO 2011/014707 A) was prepared to have pH of 6 to 8 with 7 ml of physiological saline and a 0.5N aqueous NaOH solution, and physiological saline was further added thereto to make 10 ml. The prepared 10 mg/ml comparative compound solution was diluted with physiological saline to obtain 0.3 mg/ml and 1 mg/ml comparative compound solutions.

For a further series, the system named is serum iPTH concentration. In words: Serum iPTH concentration in bilaterally nephrectomized rats after single intravenous administration.
From the text: as §1, §2, §3, §4, §5, §6

Series [2] relates to bilaterally nephrectomized rats. Kind of series: Survival of bilaterally nephrectomized rats after single doses. To be noted: for number of rats surviving (of five per group): 48 hours after the administration.
From the text: as §1, §3

Where [3] appears, read: 0.3 mg/kg single i.v., 24 hours after the administration.
Setting [4] is: 0.3 mg/kg single i.v., 48 hours after the administration.
[5] abbreviates: 1 mg/kg single i.v., 24 hours after the administration.
[6] abbreviates: 1 mg/kg single i.v., 48 hours after the administration.
Setting [7] is: 3 mg/kg single i.v., 24 hours after the administration.
Where [8] appears, read: 3 mg/kg single i.v., 48 hours after the administration.
The mark [9] stands for this setting: 10 mg/kg single i.v., 24 hours after the administration.
Setting [10] is: 10 mg/kg single i.v., 48 hours after the administration (n=1).
The mark [11] stands for this setting: logistic curve fitting, 48 hours after the administration vs given dose.

Turning to `CC(=O)N[C@H](CSSC[C@H](N)C(=O)O)C(=O)N[C@H](C)C(=O)N[C@H](CCCNC(=N)N)C(=O)N[C@H](CCCNC(=N)N)C(=O)N[C@H](CCCNC(=N)N)C(=O)N[C@H](C)C(=O)N[C@H](CCCNC(=N)N)C(N)=O` [comparative compound, etelcalcetide], the “plasma concentration (estimated)” value in series [1] is 130 ng/mL. The “mean serum Ca concentration” value came out at 8.33 mg/dL in the series with serum Ca concentration (setting [3]); 10.44 mg/dL in the series on serum Ca concentration (setting [4]); 6.42 mg/dL in the series with serum Ca concentration (setting [5]); 7.33 mg/dL in the series on serum Ca concentration (setting [6]); 6.82 mg/dL in the series on serum Ca concentration (setting [7]); 5.85 mg/dL with serum Ca concentration (setting [8]). Besides, the “mean serum Ca concentration” value with serum Ca concentration (setting [9]) was 6.95 mg/dL; in the series with serum Ca concentration (setting [10]) it was 6.65 mg/dL. The “lower limit value of the serum Ca concentration (simulated)” value in the series on serum Ca concentration (setting [11]) was 5.880 mg/dL. For the same molecule, the mean serum iPTH concentration in the series with serum iPTH concentration (setting [3]) is 122 pg/mL; with serum iPTH concentration (setting [4]) it was 510 pg/mL; in the series on serum iPTH concentration (setting [5]), 52 pg/mL; in the series with serum iPTH concentration (setting [6]), 280 pg/mL; in the series with serum iPTH concentration (setting [7]), 22 pg/mL; with serum iPTH concentration (setting [8]), 41 pg/mL. Also, the mean serum iPTH concentration in the series with serum iPTH concentration (setting [9]) is 104 pg/mL; with serum iPTH concentration (setting [10]), 230 pg/mL. Further, the “lower limit value of the serum iPTH concentration (simulated)” value in the series with serum iPTH concentration (setting [11]) is 48.18 pg/mL. Moreover, the “50% effective concentration, EC50 value, for decreasing the serum iPTH concentration” value in the series on serum iPTH concentration (plasma concentration, rats) amounted to 0.04 µg/mL. Further, the “decrease of serum iPTH and Ca concentrations” value in the series on serum iPTH concentration (renal failure rat models, during 48 hours after the administration, relation to dose) is given as “in a dose-dependent manner”. In addition, the “number of rats surviving (of five per group)” value was “four” in series [2] (3 mg/kg group) and “one” in series [2] (10 mg/kg group). The “number of dead rats” value in series [2] (relation to dose) was “increased in a dose-dependent manner”.
